Laboratory results from patent publication US20220378756A1, “ACTIVATING PYRUVATE KINASE R” (FORMA Therapeutics, Inc., priority 2019, published 2022).

Tested on: 2,3-DPG, ATP and p50 in blood
Assay: Phase 1 SAD/MAD, healthy volunteers: pharmacodynamics
Format: in vivo, human
Details: for median reduction in the concentration of 2,3-DPG, relative to baseline: HV MAD; for Median Percentage Change in 2,3-DPG Levels / Median Percentage Change in ATP Levels (Day 14) / Mean Absolute Change in p50 (mmHg) (Day 14): HV; for Mean Absolute Change in p50 (mmHg) (Day 14): vs baseline
Source text: This is a first-in-human (FIH), Phase 1 study of Compound 1 that will characterize the safety, PK, and PD of Compound 1 after a single dose and after repeated dosing first in healthy adult volunteers and then in adolescents or adults with sickle cell disease. Initially, a dose range of Compound 1 in single ascending dose (SAD) escalation cohorts will be explored in healthy subjects. Enrollment of healthy subjects into 2-week multiple ascending dose (MAD) escalation cohorts will be initiated once the safety and PK from at least two SAD cohorts is available to inform the doses for the 2-week MAD portion of the study. The MAD cohorts will then run in parallel to the single dose cohorts. A single dose cohort is planned to understand food effects (FE) on the PK of Compound 1. […] Multiple dose studies in SCD subjects will then be initiated upon completion of MAD studies in healthy volunteers. Compound 1 will be administered in 25 mg and 100 mg tablets delivered orally.
In this study, SAD/MAD cohorts are randomized (3 to 1) to receive Compound 1 or placebo (P). Compound 1 was evaluated first in 4 healthy SAD cohorts and 4 healthy MAD (14-day dosing period) cohorts. Based on the safety, and PK/PD profile from HS, Compound 1 is then evaluated in 1 SCD SAD cohort and 2 SCD MAD cohorts. Specifically, based on the safety and pharmacokinetic/pharmacodynamics (PK/PD) profile in healthy volunteer studies, Compound 1 is evaluated in patients (pts) with SCD, first in a single dose (SD or SAD) cohort and then in multiple-dose (MD or MAD) cohorts (14-day and 12-week). Safety assessments include AEs, vital signs, ECGs and laboratory parameters. PK/PD blood sampling was performed on Day 1 (SAD/MAD) and Day 14 (MAD) and up to 72 h after the last dose and at the end-of-study visit. PD parameters included 2,3-DPG, ATP, and p50 in all cohorts with additional PD studies (including oxygen scan) performed only in the SCD cohorts. PD parameters included 2,3-DPG, ATP, p50, RBC deformability with controlled deoxygenation and reoxygenation (Lorrca® oxygen scan) and varying osmolality (Lorrca® osmoscan)). To maintain study blind, pt identifiers were removed when needed.
Four healthy SAD cohorts were evaluated at doses of 200, 400, 700, and 1000 mg, and four healthy MAD cohorts received 200 to 600 mg total daily doses for 14 days at QD or BID dosing (100 mg BID, 200 mg BID, 300 mg BID, and 400 mg QD). In the food effect (FE) cohort, 10 healthy subjects received 200 mg of Compound 1 QD with and without food.
In the SAD cohorts, the subjects' blood 2,3-DPG levels were measured periodically after dosing by a qualified LC-MS/MS method for the quantitation of 2,3-DPG in blood. Decreased 2,3-DPG blood levels were observed 6 hours following a single dose of Compound 1 at all dose levels (earlier timepoints were not collected). Maximum decreases in 2,3-DPG levels generally occurred ˜24 hours after the first dose with the reduction sustained ˜48-72 hr postdose. Table 16 reports the median percentage change in 2,3-DPG blood levels, relative to baseline, measured over time in healthy volunteers after a single dose of Compound 1 (200 mg, 400 mg, 700 mg, or 1000 mg) or placebo. Accordingly, the median reduction in the concentration of 2,3-DPG, relative to baseline, was at least about […] at all dose levels tested 24 hours after administration of the single dose.
In the MAD cohorts, the subjects' blood 2,3-DPG levels were measured periodically after dosing by a qualified LC-MS/MS method for the quantitation of 2,3-DPG in blood. The maximum decrease in 2,3-DPG on Day 14 was 55% from baseline (median). […] Table 18 reports the median percentage change in 2,3-DPG blood levels, relative to baseline, measured over time after the first dose on days 1 and 14 in healthy volunteers who received daily doses of Compound 1 (100 mg BID, 200 mg BID, or 300 mg BID) or placebo for 14 days. […]

[1] = 100 mg BID, Day 14, 0 h after first daily dose
[2] = 100 mg BID, Day 14, 6 h after first daily dose
[3] = 100 mg BID, Day 14, 8 h after first daily dose
[4] = 100 mg BID, Day 14, 12 h after first daily dose
[5] = 100 mg BID, Day 14, 16 h after first daily dose
[6] = 100 mg BID, Day 14, 24 h after first daily dose
[7] = 100 mg BID, Day 14, 48 h after first daily dose
[8] = 100 mg BID, Day 14, 72 h after first daily dose
[9] = 200 mg BID, Day 14, 0 h after first daily dose
[10] = 200 mg BID, Day 14, 6 h after first daily dose
[11] = 200 mg BID, Day 14, 8 h after first daily dose
[12] = 200 mg BID, Day 14, 12 h after first daily dose
[13] = 200 mg BID, Day 14, 16 h after first daily dose
[14] = 200 mg BID, Day 14, 24 h after first daily dose
[15] = 200 mg BID, Day 14, 48 h after first daily dose
[16] = 200 mg BID, Day 14, 72 h after first daily dose

With `O=C([C@H](CO)c1ccccc1)N1CC2=C(C1)CN(S(=O)(=O)c1cnc3c(c1)OCCO3)C2` (single isomer, unassigned) [Compound 1] the “maximum decrease in 2,3-DPG from baseline (median)” value (HV MAD cohorts, Day 14) was 55%, the “median reduction in the concentration of 2,3-DPG, relative to baseline” value (all dose levels, 24 hours after first dose on day 1) was “at least 25%” and the “median reduction in the concentration of 2,3-DPG, relative to baseline” value (all dose levels, 24 hours after first dose on day 14) was “at least 40%”. The “median reduction of p50” value (HV SAD, all dose levels, 24 hours after a single dose) was 3-5 mmHg, the “Median Percentage Change in 2,3-DPG Levels” value (100 mg BID, Day 1, 0 h after first daily dose) was 0.0% and the “Median Percentage Change in 2,3-DPG Levels” value (100 mg BID, Day 1, 6 h after first daily dose) was −16.1%. For the same compound, the “Median Percentage Change in 2,3-DPG Levels” value (100 mg BID, Day 1, 8 h after first daily dose) was −12.1%, the “Median Percentage Change in 2,3-DPG Levels” value (100 mg BID, Day 1, 12 h after first daily dose) was −18.1% and the “Median Percentage Change in 2,3-DPG Levels” value (100 mg BID, Day 1, 16 h after first daily dose) was −18.4%. For the same compound, the “Median Percentage Change in 2,3-DPG Levels” value (100 mg BID, Day 1, 24 h after first daily dose) was −27.8%, the “Median Percentage Change in 2,3-DPG Levels” value [1] was −42.0% and the “Median Percentage Change in ATP Levels (Day 14)” value [1] was 41.5%. The “Median Percentage Change in 2,3-DPG Levels” value [2] was −44.3%, the “Median Percentage Change in ATP Levels (Day 14)” value [2] was 43.8% and the “Median Percentage Change in 2,3-DPG Levels” value [3] was −44.7%. The “Median Percentage Change in ATP Levels (Day 14)” value [3] was 47.8%, the “Median Percentage Change in 2,3-DPG Levels” value [4] was −43.6% and the “Median Percentage Change in ATP Levels (Day 14)” value [4] was 45.4%. For the same compound, the “Median Percentage Change in 2,3-DPG Levels” value [5] was −43.9%, the “Median Percentage Change in ATP Levels (Day 14)” value [5] was 44.8% and the “Median Percentage Change in 2,3-DPG Levels” value [6] was −44.1%. The “Median Percentage Change in ATP Levels (Day 14)” value [6] was 55.0%, the “Median Percentage Change in 2,3-DPG Levels” value [7] was −34.7% and the “Median Percentage Change in ATP Levels (Day 14)” value [7] was 52.2%. The “Median Percentage Change in 2,3-DPG Levels” value [8] was −20.2%, the “Median Percentage Change in ATP Levels (Day 14)” value [8] was 49.2% and the “Mean Absolute Change in p50 (mmHg) (Day 14)” value (200 mg BID for 14 days) was −4.14 mmHg. The “Median Percentage Change in 2,3-DPG Levels” value (200 mg BID, Day 1, 0 h after first daily dose) was 0.0%, the “Median Percentage Change in 2,3-DPG Levels” value (200 mg BID, Day 1, 6 h after first daily dose) was −13.1% and the “Median Percentage Change in 2,3-DPG Levels” value (200 mg BID, Day 1, 8 h after first daily dose) was −22.3%. For the same compound, the “Median Percentage Change in 2,3-DPG Levels” value (200 mg BID, Day 1, 12 h after first daily dose) was −23.1%, the “Median Percentage Change in 2,3-DPG Levels” value (200 mg BID, Day 1, 16 h after first daily dose) was −33.9% and the “Median Percentage Change in 2,3-DPG Levels” value (200 mg BID, Day 1, 24 h after first daily dose) was −43.5%. The “Median Percentage Change in 2,3-DPG Levels” value [9] was −48.2%, the “Median Percentage Change in ATP Levels (Day 14)” value [9] was 55.3% and the “Median Percentage Change in 2,3-DPG Levels” value [10] was −48.5%. For the same compound, the “Median Percentage Change in ATP Levels (Day 14)” value [10] was 48.1%, the “Median Percentage Change in 2,3-DPG Levels” value [11] was −44.3% and the “Median Percentage Change in ATP Levels (Day 14)” value [11] was 58.4%. For the same compound, the “Median Percentage Change in 2,3-DPG Levels” value [12] was −42.2%, the “Median Percentage Change in ATP Levels (Day 14)” value [12] was 56.2% and the “Median Percentage Change in 2,3-DPG Levels” value [13] was −42.9%. The “Median Percentage Change in ATP Levels (Day 14)” value [13] was 57.0%, the “Median Percentage Change in 2,3-DPG Levels” value [14] was −44.3% and the “Median Percentage Change in ATP Levels (Day 14)” value [14] was 64.0%. The “Median Percentage Change in 2,3-DPG Levels” value [15] was −38.7%, the “Median Percentage Change in ATP Levels (Day 14)” value [15] was 58.9% and the “Median Percentage Change in 2,3-DPG Levels” value [16] was −20.2%. The “Median Percentage Change in ATP Levels (Day 14)” value [16] was 54.0%, the “Mean Absolute Change in p50 (mmHg) (Day 14)” value (300 mg BID for 14 days) was −5.34 mmHg and the “Median Percentage Change in 2,3-DPG Levels” value (300 mg BID, Day 1, 0 h after first daily dose) was 0.0%. The “Median Percentage Change in 2,3-DPG Levels” value (300 mg BID, Day 1, 6 h after first daily dose) was −18.8%, the “Median Percentage Change in 2,3-DPG Levels” value (300 mg BID, Day 1, 8 h after first daily dose) was −23.8% and the “Median Percentage Change in 2,3-DPG Levels” value (300 mg BID, Day 1, 12 h after first daily dose) was −31.6%.
